Key:
Type in all cases: in vivo
[1] = system: M. incognita (Root Knot Nematode) larvae; experiment: Evaluation of test compounds against M. incognita larvae in microtiter plate wells (movement score); settings: larvae scored for movement after 20-24 hours; further: key: A score of '9' indicates inactive worms with a straight, sticklike morphology; A score of '8' indicates inactive worms with a limp, curled or curved morphology; A score of '7' indicates dead/paralyzed worms after 72 hours
Method in brief: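 Newly emerged M. incognita larvae in S Medium (buffered salt solution), 50-65 worms per well, exposed to test compounds in sealed microtiter wells. Movement scored after 20-24 h incubation; wells with obviously dead/paralyzed larvae scored positive. A score of "7" denotes dead/paralyzed worms after […].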

[2] = system: C. elegans (Bristol strain); experiment: Evaluation of test compounds against C. elegans (motility, 96-well plate); design: key: 9=complete kill in 4 hours; 8=complete kill in 24 hours; 7=markedly reduced motility in approximately 95% of worms in 24 hours; 0=normal motility, same as controls; settings: motility at 4 and 24 hours
Method in brief: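 Bristol-strain C. elegans in Na buffer added to wells containing dried compound (applied in 80% acetone) and incubated at 20 °C. Motility of adults and larvae scored subjectively but semi-quantitatively under a dissecting microscope at 4 and 24 h after immersion, plates tapped before reading.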

[3] = system: Spodoptera eridania, 2nd instar larvae, southern armyworm (SAW); experiment: Southern armyworm (SAW) leaf dip test; design: key: 0 = no effect; 1 = 10-25% kill; 2 = 26-35% kill; 3 = 36-45% kill; 4 = 46-55% kill; 5 = 56-65% kill; 6 = 66-75% kill; 7 = 76-85% kill; 8 = 86-99% kill; 9 = 100% kill
Method in brief: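 Compound is dissolved at 10,000 ppm in 35% acetone/water, then diluted with water. Lima bean leaves are dipped for 3 seconds, dried and placed with ten 2nd instar larvae on damp filter paper. Mortality, reduced feeding and molting interference are scored at 5 days.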

[4] = system: Diabrotica virgifera virgifera Leconte, 2nd instar western corn rootworm (WCR); experiment: Western corn rootworm (WCR) soil test; design: key: 0 = no effect; 1 = 10-25% kill; 2 = 26-35% kill; 3 = 36-45% kill; 4 = 46-55% kill; 5 = 56-65% kill; 6 = 66-75% kill; 7 = 76-85% kill; 8 = 86-99% kill; 9 = 100% kill
Method in brief: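 Compound in 35% acetone/water applied to talc at 1.25 mg active ingredient per jar (about 50 kg/ha), solvent evaporated, then mixed with millet seed and moist soil. Ten 2nd-instar larvae per jar; mortality counted after 5 days, missing larvae scored dead.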

[5] = system: Tetranychus urticae (OP-resistant strain), 2-spotted spider mite (TSM); experiment: 2-spotted spider mite (TSM) plant dip test; design: key: 0 = no effect; 1 = 10-25% kill; 2 = 26-35% kill; 3 = 36-45% kill; 4 = 46-55% kill; 5 = 56-65% kill; 6 = 66-75% kill; 7 = 76-85% kill; 8 = 86-99% kill; 9 = 100% kill; settings: mortality after 2 days
Method in brief: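 OP-resistant mites (~100 per leaf) were transferred onto Sieva lima bean primary leaves about 2 h before treatment. Infested plants were dipped for 3 s in compound from a 10,000 ppm stock in 35% acetone/water, diluted with water. Mortality was counted after 2 days.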

[6] = system: Aphis gossypii, cotton aphid (CA); experiment: Cotton aphid (CA) cotyledon dip test; design: key: 0 = no effect; 1 = 10-25% kill; 2 = 26-35% kill; 3 = 36-45% kill; 4 = 46-55% kill; 5 = 56-65% kill; 6 = 66-75% kill; 7 = 76-85% kill; 8 = 86-99% kill; 9 = 100% kill; settings: mortality after 5 days
Method in brief: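 Cotyledon-stage cotton plants infested overnight via a heavily infested leaf, then dipped in test solution (compound in 35% acetone/water, diluted with water) and dried. Mortality counted after 5 days.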

[7] = system: Spodoptera eridania, eggs-southern armyworm (SAW-Eggs); experiment: Southern armyworm eggs (SAW-Eggs) treated diet test; design: key: 0 = no effect; 1 = 10-25% kill; 2 = 26-35% kill; 3 = 36-45% kill; 4 = 46-55% kill; 5 = 56-65% kill; 6 = 66-75% kill; 7 = 76-85% kill; 8 = 86-99% kill; 9 = 100% kill; settings: mortality after 7 days
Method in brief: (§1)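 Compounds dissolved at 10,000 ppm in 35% acetone/water, diluted with water, applied to artificial diet in wells and dried. Southern corn rootworm or southern armyworm eggs placed on treated diet under vented covers; mortality counted after 7 days.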

[8] = system: Diabrotica undecimpunctata howardi, eggs-southern corn rootworm (SCR-Eggs); experiment: Southern corn rootworm eggs (SCR-Eggs) treated diet test; design: key: 0 = no effect; 1 = 10-25% kill; 2 = 26-35% kill; 3 = 36-45% kill; 4 = 46-55% kill; 5 = 56-65% kill; 6 = 66-75% kill; 7 = 76-85% kill; 8 = 86-99% kill; 9 = 100% kill; settings: mortality after 7 days
Method in brief: as §1

CCOC(=O)CSC(C[N+](=O)[O-])c1ccc(OC(F)(F)F)cc1 (racemic) [Example 118]
M. incognita (150 ppm) score [1]: 0 | Rating Against C. elegans (150 ppm) [2]: 8 | SAW (300 ppm) rating [3]: 0 | WCR (50 ppm) rating [4]: 0 | TSM (300 ppm) rating [5]: 0 | CA (300 ppm) rating [6]: 0 | SAW Eggs (300 ppm) rating [7]: 9 (9 = 100% kill) | SCR Eggs (1000 ppm) rating [8]: 0

CCCOC(=O)CSC(C[N+](=O)[O-])c1ccc(OC(F)(F)F)cc1 (racemic) [Example 119]
M. incognita (150 ppm) score [1]: 9 | Rating Against C. elegans (150 ppm) [2]: 8 | SAW (300 ppm) rating [3]: 0 | WCR (50 ppm) rating [4]: 0 | TSM (300 ppm) rating [5]: 3 (3 = 36-45% kill) | CA (300 ppm) rating [6]: 0 | SAW Eggs (300 ppm) rating [7]: 9 (9 = 100% kill) | SCR Eggs (1000 ppm) rating [8]: 0

CCCCOC(=O)CSC(C[N+](=O)[O-])c1ccc(OC(F)(F)F)cc1 (racemic) [Example 120]
M. incognita (150 ppm) score [1]: 9 | Rating Against C. elegans (150 ppm) [2]: 0 | SAW (300 ppm) rating [3]: 0 | WCR (50 ppm) rating [4]: 0 | TSM (300 ppm) rating [5]: 0 | CA (300 ppm) rating [6]: 0 | SAW Eggs (300 ppm) rating [7]: 0 | SCR Eggs (1000 ppm) rating [8]: 0

O=C(CSC(C[N+](=O)[O-])c1ccc(OC(F)(F)F)cc1)OCc1ccccc1 (racemic) [Example 121]
M. incognita (150 ppm) score [1]: 8 | Rating Against C. elegans (150 ppm) [2]: 9 | SAW (300 ppm) rating [3]: 0 | WCR (50 ppm) rating [4]: 0 | TSM (300 ppm) rating [5]: 0 | CA (300 ppm) rating [6]: 0 | SAW Eggs (300 ppm) rating [7]: 0 | SCR Eggs (1000 ppm) rating [8]: 0

CCCSC(C[N+](=O)[O-])c1ccc(OC(F)(F)F)cc1 (racemic) [Example 122]
M. incognita (150 ppm) score [1]: 0 | Rating Against C. elegans (150 ppm) [2]: 8 | SAW (300 ppm) rating [3]: 2 (2 = 26-35% kill) | WCR (50 ppm) rating [4]: 9 (9 = 100% kill) | TSM (300 ppm) rating [5]: 7 (7 = 76-85% kill) | CA (300 ppm) rating [6]: 0 | SAW Eggs (300 ppm) rating [7]: 7 (7 = 76-85% kill) | SCR Eggs (1000 ppm) rating [8]: 0

COC(=O)CSC(C[N+](=O)[O-])c1ccccc1 (stereo not shown) [Example 4]
M. incognita (150 ppm) score [1]: 9 | Rating Against C. elegans (150 ppm) [2]: 9 | SAW (300 ppm) rating [3]: 0 | WCR (50 ppm) rating [4]: 4 (4 = 46-55% kill) | TSM (300 ppm) rating [5]: 0 | CA (300 ppm) rating [6]: 5 (5 = 56-65% kill) | SAW Eggs (300 ppm) rating [7]: 0 | SCR Eggs (1000 ppm) rating [8]: 0

CCOC(=O)CSC(C[N+](=O)[O-])c1ccc(C)cc1 (stereo not shown) [Example 5]
M. incognita (150 ppm) score [1]: 9 | Rating Against C. elegans (150 ppm) [2]: 9 | SAW (300 ppm) rating [3]: 0 | WCR (50 ppm) rating [4]: 4 (4 = 46-55% kill) | TSM (300 ppm) rating [5]: 0 | CA (300 ppm) rating [6]: 0 | SAW Eggs (300 ppm) rating [7]: 0 | SCR Eggs (1000 ppm) rating [8]: 0

COC(=O)CSC(C[N+](=O)[O-])c1ccc2c(c1)OCO2 (stereo not shown) [Example 18]
M. incognita (150 ppm) score [1]: 9 | Rating Against C. elegans (150 ppm) [2]: 9 | SAW (300 ppm) rating [3]: 0 | WCR (50 ppm) rating [4]: 0 | TSM (300 ppm) rating [5]: 0 | CA (300 ppm) rating [6]: 9 (9 = 100% kill) | SAW Eggs (300 ppm) rating [7]: 0 | SCR Eggs (1000 ppm) rating [8]: 0

Reference: US6358883B1, “Pesticidal and parasiticidal use of 1-aryl-1-(substituted thio, sulfinyl and sulfonyl)-2-nitroethane compounds” (American Cyanamid Company, priority 1998, dated 2002)
